Literature values in article PMC11678311, “Log BB Prediction Models Using TLC and HPLC Retention Values as Protein Affinity Data” (Pharmaceutics, 2024).

Conditions: drugs highly bound to plasma proteins whose log BB may be less than zero

Row | Compound | penetration of the blood–brain barrier / central action
1 | CC(C)Cc1ccc(C(C)C(=O)O)cc1 (centres unmarked) [ibuprofen] | cross the blood–brain barrier in an unbound state and act centrally
2 | Cc1ncc2n1-c1ccc(Cl)cc1C(c1ccccc1F)=NC2 [midazolam] | cross the blood–brain barrier in an unbound state and act centrally
